Earlier results as cited in patent publication US20120301405A1, “Simple Mechanical Procedure and Product for Deterring Substance Abuse” (priority 2005, published 2012).
Like-named read-outs stand apart in the source and are kept apart here.

Columns and labels:
benzodiazepine receptors = details: for AED (Approximate Equivalent Dose): based on clinical experience
[1] = for Time to Peak (onset of action, in hours): maximum levels of the drug in the blood after a given dose; for Elimination ½-Life (h) [active metabolite]: value in square brackets
[2] = atypical benzodiazepine receptor ligands table

SMILES | AED (Approximate Equivalent Dose) (benzodiazepine receptors; benzodiazepine table) [mg] | Time to Peak (onset of action, in hours) [1] | Elimination ½-Life ([1]; parent drug) [h] | further results
CN1CCN(/C=C2\N=C3CN=C(c4ccccc4Cl)c4cc([N+](=O)[O-])ccc4N3C2=O)CC1 [Loprazolam] | 1 to 2 | 0.5-4^ hours | 6 to 12 | –
Cc1ccc(-c2nc3ccc(C)cn3c2CC(=O)N(C)C)cc1 [Zolpidem] | – | – | – | AED (Approximate Equivalent Dose) (benzodiazepine receptors; [2]): 20 mg; Elimination ½-Life [1, 2]: 2.6 h
O=C(O)C1N=C(c2ccccc2)c2cc(Cl)ccc2NC1=O (centres unmarked) [Clorazepate] | 15 | variable | 36 to 100 | –
O=C1CN2CCOC2(c2ccccc2Cl)c2cc(Cl)ccc2N1 (centres unmarked) [Cloxazolam] | 1 | – | – | –
Cc1c2c(cn1C)NC(=O)CN=C2c1ccccc1 [Premazepam] | 3.75 | 2 to 6 h | 10 to 13 | –
C#CCN1C(=O)CN=C(c2ccccc2)c2cc(Cl)ccc21 [Pinazepam] | 20 | – | 40 to 100 | –
Cc1ncc2n1-c1ccc(Cl)cc1C(c1ccccc1F)=NC2 [Midazolam] | 5 to 8 | 0.5-1^ hours | – | –
CN1C(=O)C(O)N=C(c2ccccc2Cl)c2cc(Cl)ccc21 (centres unmarked) [Lormetazepam] | 1 to 2 | 0.5-2^ hours | 10 to 12 | –
CC1=CC(=O)N2CC(=O)N(C)c3ccc(Cl)cc3C2(c2ccccc2)O1 (centres unmarked) [Ketazolam] | 15 to 30 | 2.5-3^ hours | 30 to 100 | Elimination ½-Life (h) [active metabolite] [1]: [36-200] h
CN1CCN(C(=O)O[C@H]2c3nccnc3C(=O)N2c2ccc(Cl)cn2)CC1 [Eszopiclone] | – | – | – | Elimination ½-Life [1, 2]: 6 h
CCc1cc2c(s1)N(C)C(=O)CN=C2c1ccccc1Cl [Clotiazepam] | 5 to 10 | 1 to 3 h | 6 to 18 | –
O=C1CN=C(c2ccccc2)c2cc([N+](=O)[O-])ccc2N1 [Nitrazepam] | 10 | 0.5-7^ hours | 15 to 38 | –
O=C1Nc2ccc(Cl)cc2C(c2ccccc2Cl)=NC1O (centres unmarked) [Lorazepam] | 1 | 2 to 4 h | 10 to 20 | –
CCc1cc2c(s1)-n1c(C)nnc1CN=C2c1ccccc1Cl [Etizolam] | 1 | 1 to 2 h | 6 | –
Cc1nnc2n1-c1ccc(Cl)cc1C(c1ccccc1)=NC2 [Alprazolam] | 0.5 | 1 to 2 h | 6 to 12 | –
O=C1CN=C(c2ccccn2)c2cc(Br)ccc2N1 [Bromazepam] | 5 to 6 | 1 to 3 h | 10 to 20 | –
Cc1nnc2n1-c1ccc(Cl)cc1C(c1ccccc1Cl)=NC2 [Triazolam] | 0.25 | 0.5-2^ hours | 2 | –
CNC1=Nc2ccc(Cl)cc2C(c2ccccc2)=[N+]([O-])C1 [Chlordiazepoxide] | – | – | – | elimination half-life in the elderly compared to younger individuals ([1]; elderly vs younger individuals): twice as long
O=C1CN=C(c2ccccc2)c2cc(Cl)ccc2N1 [Nordazepam] | 10 | – | 50 to 120 | –
CC(C)(C)OC(=O)c1ncn2c1[C@@H]1CCCN1C(=O)c1c(Br)cccc1-2 [Bretazenil] | 0.5 | – | 2.5 | –
Clc1ccc2c(c1)C(c1ccccc1)=NCc1nncn1-2 [Estazolam] | 1 to 2 | 1 to 5 h | 10 to 24 | –

SMILES | AED (Approximate Equivalent Dose) (benzodiazepine receptors; benzodiazepine table) [mg] | Time to Peak (onset of action, in hours) [1] | Elimination ½-Life ([1]; parent drug) [h] | further results
CN1CCN=C(c2ccccc2)c2cc(Cl)ccc21 [Medazepam] | 10 | – | 36 to 200 | –
CN1C(=O)CN=C(c2ccccc2F)c2cc([N+](=O)[O-])ccc21 [Flunitrazepam] | 1 | 0.5-3^ hours | 18 to 26 | –
CN1CCN(C(=O)OC2c3nccnc3C(=O)N2c2ccc(Cl)cn2)CC1 (centres unmarked) [Zopiclone] | – | – | – | AED (Approximate Equivalent Dose) (benzodiazepine receptors; [2]): 15 mg; Elimination ½-Life [1, 2]: 4 to 6 h
CCN(C(C)=O)c1cccc(-c2ccnc3c(C#N)cnn23)c1 [Zaleplon] | – | – | – | AED (Approximate Equivalent Dose) (benzodiazepine receptors; [2]): 20 mg
CN1C(=O)CN=C(C2=CCCCC2)c2cc(Cl)ccc21 [Tetrazepam] | 100 | 1 to 3 h | 3 to 26 | –
Cc1nnc2n1-c1sc(Br)cc1C(c1ccccc1Cl)=NC2 [Brotizolam] | 0.25 | 0.5-2^ hours | 4 to 5 | –
CN1C(=O)CN=C(c2ccccc2)c2cc([N+](=O)[O-])ccc21 [Nimetazepam] | 5 | 0.5-3^ hours | 14 to 30 | –
O=C1CN=C(c2ccccc2)c2cc(Cl)ccc2N1CC(F)(F)F [Halazepam] | 20 to 40 | 1 to 3 h | 30 to 100 | –
CCN(CC)CCN1C(=O)CN=C(c2ccccc2F)c2cc(Cl)ccc21 [Flurazepam] | 15 to 30 | 1 to 1.5 h | 40 to 250 | –
CN1C(=O)CC(=O)N(c2ccccc2)c2cc(Cl)ccc21 [Clobazam] | – | – | – | AED (Approximate Equivalent Dose) (benzodiazepine receptors; [2]): 20 mg; Elimination ½-Life [1, 2]: 8 to 60 h
O=C1CN=C(c2ccccc2Cl)c2cc(Cl)ccc2N1 [Delorazepam] | 1 | 1 to 2 h | 60 to 140 | –
O=C1CN=C(c2ccccc2Cl)c2cc([N+](=O)[O-])ccc2N1 [Clonazepam] | 0.5 | 1 to 4 h | 18 to 50 | –
O=C1Nc2ccc(Cl)cc2C(c2ccccc2)=NC1O (centres unmarked) [Oxazepam] | – | 3 to 4 h | 4 to 15 | –
O=C1CN=C(c2ccccc2F)c2cc(Cl)ccc2N1CC1CC1 [Flutoprazepam] | 2 to 3 | 0.5-9^ hours | 60 to 90 | –
CN1C(=O)CN=C(c2ccccc2)c2cc(Cl)ccc21 [Diazepam] | 10 | 1 to 1.5 h | 20 to 100 | equivalent dose in an elderly individual on lorazepam versus what would be expected in a younger individual (benzodiazepine receptors; elderly individual on lorazepam): up to half; Elimination ½-Life (h) [active metabolite] [1]: [36-200] h
O=C1CN=C(c2ccccc2)c2cc(Cl)ccc2N1CC1CC1 [Prazepam] | 20 | 2 to 6 h | 36 to 200 | –
CCOC(=O)c1ncn2c1CN(C)C(=O)c1cc(F)ccc1-2 [Flumazenil] | – | – | – | Elimination ½-Life [1, 2]: 1 h
O=C1CN=C(c2ccccc2Cl)c2cc(Br)ccc2N1 [Phenazepam] | 1 | 1.5-4^ hours | 60 | –
CN1C(=O)C(O)N=C(c2ccccc2)c2cc(Cl)ccc21 (centres unmarked) [Temazepam] | 20 | 0.5-3^ hours | 8 to 22 | –
Fc1ccccc1C1=NCC(=S)N(CC(F)(F)F)c2ccc(Cl)cc21 [Quazepam] | 20 | 1 to 5 h | 39 to 120 | –
N#CCCN1C(=O)C(O)N=C(c2ccccc2F)c2cc(Cl)ccc21 (centres unmarked) [Cinolazepam] | 40 | 0.5-2^ hours | 9 | –
